US12391679B2, “Benzamide-substituted bicyclic imidazo- and pyrazolo-fused -pyridine, -pyrimide, and -pyridazine compounds for treatment of inflammatory diseases” (ONCO3R Therapeutics BV, priority 2019, dated 2025)

Tests used:
Type in all cases: biochemical
SIK2 = molecular target: T1, SIK2 (Homo sapiens, UniProt Q9H0K1); experiment: ADP-Glo kinase assay, SIK2
T1 construct: purchased ThermoFisher Scientific PV4792
In short: (§1)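 Steps: add enzyme–substrate mixture; start with diluted ATP; incubate RT 120 min; add ADP-Glo Reagent to terminate and remove unconsumed ATP, 40 min; add detection reagent, 30 min; read luminescence. DMSO at 1% and staurosporine at 10 μM (final) define assay windows.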

SIK3 = molecular target: T2, SIK3 (Homo sapiens, UniProt Q9Y2K2); experiment: ADP-Glo kinase assay, SIK3
T2 construct: purchased SignalChem S12-11G-100
In short: as §1

SIK1 = molecular target: T3, SIK1 (Homo sapiens, UniProt P57059); experiment: ADP-Glo kinase assay, SIK1
T3 construct: purchased Carna Biosciences 02-131
In short: as §1

T2 sequence (Q9Y2K2 59-365 limits assumed): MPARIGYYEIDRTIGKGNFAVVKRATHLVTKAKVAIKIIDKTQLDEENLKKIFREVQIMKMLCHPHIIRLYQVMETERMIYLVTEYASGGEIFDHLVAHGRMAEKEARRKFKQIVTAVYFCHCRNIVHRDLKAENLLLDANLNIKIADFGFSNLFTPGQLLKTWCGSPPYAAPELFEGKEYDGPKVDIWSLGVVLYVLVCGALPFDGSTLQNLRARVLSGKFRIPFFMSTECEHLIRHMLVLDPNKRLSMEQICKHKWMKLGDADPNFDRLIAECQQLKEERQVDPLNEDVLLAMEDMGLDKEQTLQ
T3 sequence (P57059 whole entry): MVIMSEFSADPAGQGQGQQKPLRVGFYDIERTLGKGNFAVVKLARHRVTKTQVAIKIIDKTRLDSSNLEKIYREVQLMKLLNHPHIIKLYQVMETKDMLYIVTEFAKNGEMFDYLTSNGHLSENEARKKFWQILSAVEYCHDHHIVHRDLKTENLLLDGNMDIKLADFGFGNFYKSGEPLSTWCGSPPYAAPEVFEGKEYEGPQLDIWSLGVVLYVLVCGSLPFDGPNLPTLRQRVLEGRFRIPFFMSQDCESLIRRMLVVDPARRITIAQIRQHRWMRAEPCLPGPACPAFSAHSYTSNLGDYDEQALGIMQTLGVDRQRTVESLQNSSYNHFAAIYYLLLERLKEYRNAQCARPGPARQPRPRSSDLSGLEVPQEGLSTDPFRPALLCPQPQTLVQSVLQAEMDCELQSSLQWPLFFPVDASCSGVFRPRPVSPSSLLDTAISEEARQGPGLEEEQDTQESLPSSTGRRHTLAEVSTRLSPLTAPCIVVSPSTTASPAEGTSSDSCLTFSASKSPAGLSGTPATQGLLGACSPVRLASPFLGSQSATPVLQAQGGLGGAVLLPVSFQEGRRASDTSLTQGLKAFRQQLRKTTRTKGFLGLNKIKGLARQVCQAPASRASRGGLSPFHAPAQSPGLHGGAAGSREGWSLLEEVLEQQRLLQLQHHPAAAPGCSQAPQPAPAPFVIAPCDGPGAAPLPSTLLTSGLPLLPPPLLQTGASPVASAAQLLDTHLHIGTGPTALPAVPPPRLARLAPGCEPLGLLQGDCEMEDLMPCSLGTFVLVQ
T1 sequence (Q9H0K1 whole entry): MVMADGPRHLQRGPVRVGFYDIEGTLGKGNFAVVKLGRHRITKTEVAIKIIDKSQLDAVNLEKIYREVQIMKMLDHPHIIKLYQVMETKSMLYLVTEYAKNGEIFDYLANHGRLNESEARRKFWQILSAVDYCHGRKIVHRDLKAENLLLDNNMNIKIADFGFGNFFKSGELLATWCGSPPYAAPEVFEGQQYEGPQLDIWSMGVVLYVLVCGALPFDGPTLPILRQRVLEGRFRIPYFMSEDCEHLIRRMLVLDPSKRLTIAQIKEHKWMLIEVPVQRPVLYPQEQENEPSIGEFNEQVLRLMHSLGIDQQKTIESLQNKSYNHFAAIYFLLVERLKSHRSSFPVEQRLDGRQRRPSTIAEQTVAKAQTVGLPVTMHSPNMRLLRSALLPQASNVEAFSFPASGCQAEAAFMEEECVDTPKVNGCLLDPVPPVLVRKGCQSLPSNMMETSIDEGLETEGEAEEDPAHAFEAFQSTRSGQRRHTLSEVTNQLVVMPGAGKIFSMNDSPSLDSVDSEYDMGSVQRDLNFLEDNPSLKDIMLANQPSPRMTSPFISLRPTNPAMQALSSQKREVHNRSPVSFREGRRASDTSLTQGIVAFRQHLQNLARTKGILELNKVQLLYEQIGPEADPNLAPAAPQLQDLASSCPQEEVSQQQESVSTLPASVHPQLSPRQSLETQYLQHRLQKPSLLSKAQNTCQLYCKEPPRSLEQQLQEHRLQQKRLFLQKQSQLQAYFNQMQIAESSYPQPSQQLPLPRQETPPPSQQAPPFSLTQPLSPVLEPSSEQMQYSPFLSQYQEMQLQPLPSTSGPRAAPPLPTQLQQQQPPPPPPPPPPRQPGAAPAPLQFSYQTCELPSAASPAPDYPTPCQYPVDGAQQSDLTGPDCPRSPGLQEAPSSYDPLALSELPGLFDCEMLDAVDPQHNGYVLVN

Compound | IC50 (SIK2) | IC50 (SIK3) | IC50 (SIK1)
COCCN1CCCC1c1ccn2c(-c3cc(OC)c(C(=O)NC4CC4)c(OC(F)F)c3)cnc2c1 (stereo not drawn) [Cpd 196, N-cyclopropyl-2-(difluoromethoxy)-6-methoxy-4-[7-[1-(2-methoxyethyl)pyrrolidin-2-yl]imidazo[1,2-a]pyridin-3-yl]benzamide] | 10 to 100 nM | 10 to 100 nM | 100 to 500 nM
COc1cc(-c2cnc3cc(C4CCCN4C(C)C)ccn23)cc(OC(F)F)c1C(=O)NC1CC1 (stereo not drawn) [Cpd 197, N-cyclopropyl-2-(difluoromethoxy)-4-[7-(1-isopropylpyrrolidin-2-yl)imidazo[1,2-a]pyridin-3-yl]-6-methoxy-benzamide] | 10 to 100 nM | 10 to 100 nM | 100 to 500 nM
COc1cc(-c2cnc3cc(C4CCCN4C(C)=O)ccn23)cc(OC(F)F)c1C(=O)NC1CC1 (stereo not drawn) [Cpd 198, 4-[7-(1-acetylpyrrolidin-2-yl)imidazo[1,2-a]pyridin-3-yl]-N-cyclopropyl-2-(difluoromethoxy)-6-methoxy-benzamide] | > 500 nM | 10 to 100 nM | > 500 nM
COc1cc(-c2cnc3cc(C(O)C4CCC4)ccn23)cc(OC(F)F)c1C(=O)NC1CC1 (stereo not drawn) [Cpd 199, 4-[7-[cyclobutyl(hydroxy)methyl]imidazo[1,2-a]pyridin-3-yl]-N-cyclopropyl-2-(difluoromethoxy)-6-methoxy-benzamide] | > 500 nM | 10 to 100 nM | > 500 nM
CCC(O)C(C)(C)c1ccn2c(-c3cc(OC)c(C(=O)NC4CC4)c(OC(F)F)c3)cnc2c1 (stereo not drawn) [Cpd 201, N-cyclopropyl-2-(difluoromethoxy)-4-[7-(2-hydroxy-1,1-dimethyl-butyl)imidazo[1,2-a]pyridin-3-yl]-6-methoxy-benzamide] | > 500 nM | 10 to 100 nM | > 500 nM
COc1cc(-c2cnc3cc(C(C)(C)C(O)C(C)C)ccn23)cc(OC(F)F)c1C(=O)NC1CC1 (stereo not drawn) [Cpd 202, N-cyclopropyl-2-(difluoromethoxy)-4-[7-(2-hydroxy-1,1,3-trimethyl-butyl)imidazo[1,2-a]pyridin-3-yl]-6-methoxy-benzamide] | > 500 nM | 10 to 100 nM | > 500 nM
COc1cc(-c2cnc3cc(C4CCN4)ccn23)cc(OC(F)F)c1C(=O)NC1CC1 (stereo not drawn) [Cpd 203, 4-[7-(azetidin-2-yl)imidazo[1,2-a]pyridin-3-yl]-N-cyclopropyl-2-(difluoromethoxy)-6-methoxy-benzamide] | 100 to 500 nM | 10 to 100 nM | > 500 nM
COc1cc(-c2cnc3cc(C4CCN4C)ccn23)cc(OC(F)F)c1C(=O)NC1CC1 (stereo not drawn) [Cpd 204, N-cyclopropyl-2-(difluoromethoxy)-6-methoxy-4-[7-(1-methylazetidin-2-yl)imidazo[1,2-a]pyridin-3-yl]benzamide] | > 500 nM | 10 to 100 nM | > 500 nM
COc1cc(-c2cnc3cc(C(C)(O)CN(C)CCO)ccn23)cc(OC(F)F)c1C(=O)NC1CC1 (stereo not drawn) [Cpd 209, N-cyclopropyl-2-(difluoromethoxy)-4-[7-[1-hydroxy-2-[2-hydroxyethyl(methyl)amino]-1-methyl-ethyl]imidazo[1,2-a]pyridin-3-yl]-6-methoxy-benzamide] | > 500 nM | 10 to 100 nM | > 500 nM
COc1cc(-c2cnc3cc(C4(C)CN(C)CCO4)ccn23)cc(OC(F)F)c1C(=O)NC1CC1 (stereo not drawn) [Cpd 210, N-cyclopropyl-2-(difluoromethoxy)-4-[7-(2,4-dimethylmorpholin-2-yl)imidazo[1,2-a]pyridin-3-yl]-6-methoxy-benzamide] | > 500 nM | 10 to 100 nM | > 500 nM
COc1cc(-c2cnc3cc(C4(C)CN(C)CCO4)ccn23)cc(OC(F)F)c1C(=O)NCC(F)(F)F (stereo not drawn) [Cpd 214, 2-(difluoromethoxy)-4-[7-(2,4-dimethylmorpholin-2-yl)imidazo[1,2-a]pyridin-3-yl]-6-methoxy-N-(2,2,2-trifluoroethyl)benzamide] | > 500 nM | 100 to 500 nM | > 500 nM
COc1cn2c(-c3cc(OC)c(C(=O)NC4CC4)c(OC(F)F)c3)cnc2cc1C1COC1 [Cpd 215, N-cyclopropyl-2-(difluoromethoxy)-6-methoxy-4-[6-methoxy-7-(oxetan-3-yl)imidazo[1,2-a]pyridin-3-yl]benzamide] | 100 to 500 nM | 10 to 100 nM | 100 to 500 nM
COc1cc(-c2cnc3cc(C4(Cl)COC4)ccn23)cc(OC(F)F)c1C(=O)NC1CC1 [Cpd 217, 4-[7-(3-chlorooxetan-3-yl)imidazo[1,2-a]pyridin-3-yl]-N-cyclopropyl-2-(difluoromethoxy)-6-methoxy-benzamide] | 100 to 500 nM | 10 to 100 nM | > 500 nM
COc1cc(-c2cnc3cc(C4(C)COCCO4)ccn23)cc(OC(F)F)c1C(=O)NC1CC1 (stereo not drawn) [Cpd 220, N-cyclopropyl-2-(difluoromethoxy)-6-methoxy-4-[7-(2-methyl-1,4-dioxan-2-yl)imidazo[1,2-a]pyridin-3-yl]benzamide] | > 500 nM | 10 to 100 nM | > 500 nM
COc1cc(-c2cnc3cc(C4(N5CCOCC5)COC4)ccn23)cc(OC(F)F)c1C(=O)NC1CC1 [Cpd 222, N-cyclopropyl-2-(difluoromethoxy)-6-methoxy-4-[7-(3-morpholinooxetan-3-yl)imidazo[1,2-a]pyridin-3-yl]benzamide] | > 500 nM | 100 to 500 nM | > 500 nM
COc1cc(-c2cnc3cc(C(C)(C)N4CCOCC4)ccn23)cc(OC(F)F)c1C(=O)NC1CC1 [Cpd 226, N-cyclopropyl-2-(difluoromethoxy)-6-methoxy-4-[7-(1-methyl-1-morpholino-ethyl)imidazo[1,2-a]pyridin-3-yl]benzamide] | > 500 nM | 10 to 100 nM | > 500 nM
COc1cc(-c2cnn3cc(C(C)(C)OCCO)ccc23)cc(OC(F)F)c1C(=O)NC1CC1 [Cpd 239, N-cyclopropyl-2-(difluoromethoxy)-4-[6-[1-(2-hydroxyethoxy)-1-methyl-ethyl]pyrazolo[1,5-a]pyridin-3-yl]-6-methoxy-benzamide] | > 500 nM | 10 to 100 nM | > 500 nM

More lines, now with the values ahead:

IC50 (SIK2) | IC50 (SIK3) | IC50 (SIK1) | Compound
> 500 nM | 10 to 100 nM | > 500 nM | COc1cc(-c2cnn3cc(C(C)(C)C(N)=O)ccc23)cc(OC(F)F)c1C(=O)NC1CC1 [Cpd 244, 4-[6-(2-amino-1,1-dimethyl-2-oxo-ethyl)pyrazolo[1,5-a]pyridin-3-yl]-N-cyclopropyl-2-(difluoromethoxy)-6-methoxy-benzamide]
> 500 nM | 10 to 100 nM | > 500 nM | COc1cc(-c2cnn3cc(C(C)(C)S(C)(=O)=O)ccc23)cc(OC(F)F)c1C(=O)N[C@@H]1C[C@@H]1F [Cpd 246, 2-(difluoromethoxy)-N-[(1R,2S)-2-fluorocyclopropyl]-6-methoxy-4-[6-(1-methyl-1-methylsulfonyl-ethyl)pyrazolo[1,5-a]pyridin-3-yl]benzamide]
> 500 nM | 10 to 100 nM | > 500 nM | COc1cc(-c2cnn3cc(C(C)(C)c4noc(C)n4)ccc23)cc(OC(F)F)c1C(=O)NC1CC1 [Cpd 247, N-cyclopropyl-2-(difluoromethoxy)-6-methoxy-4-[6-[1-methyl-1-(5-methyl-1,2,4-oxadiazol-3-yl)ethyl]pyrazolo[1,5-a]pyridin-3-yl]benzamide]
> 500 nM | 10 to 100 nM | > 500 nM | CCNC(=O)C(C)(C)c1ccc2c(-c3cc(OC)c(C(=O)NC4CC4)c(OC(F)F)c3)cnn2c1 [Cpd 249, N-cyclopropyl-2-(difluoromethoxy)-4-[6-[2-(ethylamino)-1,1-dimethyl-2-oxo-ethyl]pyrazolo[1,5-a]pyridin-3-yl]-6-methoxy-benzamide]
> 500 nM | 100 to 500 nM | > 500 nM | COc1cc(-c2cnn3cc(C(C)(C)C#N)ccc23)cc(F)c1C(=O)NC1CC1 [Cpd 252, 4-[6-(1-cyano-1-methyl-ethyl)pyrazolo[1,5-a]pyridin-3-yl]-N-cyclopropyl-2-fluoro-6-methoxy-benzamide]
> 500 nM | 10 to 100 nM | > 500 nM | COc1cc(-c2cnn3cc(C(C)(C)C#N)ccc23)cc(OC)c1C(=O)NC1CC1 [Cpd 259, 4-[6-(1-cyano-1-methyl-ethyl)pyrazolo[1,5-a]pyridin-3-yl]-N-cyclopropyl-2,6-dimethoxy-benzamide]
> 500 nM | 100 to 500 nM | > 500 nM | COCCOc1cc(-c2cnn3cc(C(C)(C)C#N)ccc23)cc(OC)c1C(=O)NC1CC1 [Cpd 260, 4-[6-(1-cyano-1-methyl-ethyl)pyrazolo[1,5-a]pyridin-3-yl]-N-cyclopropyl-2-methoxy-6-(2-methoxyethoxy)benzamide]
> 500 nM | 100 to 500 nM | > 500 nM | COc1cc(-c2cnn3cc(C(C)(C)C#N)ccc23)cc(OCCO)c1C(=O)NC1CC1 [Cpd 263, 4-[6-(1-cyano-1-methyl-ethyl)pyrazolo[1,5-a]pyridin-3-yl]-N-cyclopropyl-2-(2-hydroxyethoxy)-6-methoxy-benzamide]
> 500 nM | 10 to 100 nM | > 500 nM | CCCCOC(=O)NC(C)(C)c1ccc2c(-c3cc(OC)c(C(=O)N[C@@H]4C[C@@H]4F)c(OC(F)F)c3)cnn2c1 [Cpd 264, butyl N-[1-[3-[3-(difluoromethoxy)-4-[[(1R,2S)-2-fluorocyclopropyl]carbamoyl]-5-methoxy-phenyl]pyrazolo[1,5-a]pyridin-6-yl]-1-methyl-ethyl]carbamate]
> 500 nM | 10 to 100 nM | > 500 nM | COc1cc(-c2cnn3cc(C4(NCC#N)CCC4)ccc23)cc(OC(F)F)c1C(=O)N[C@@H]1C[C@@H]1F [Cpd 270, 4-[6-[1-(cyanomethylamino)cyclobutyl]pyrazolo[1,5-a]pyridin-3-yl]-2-(difluoromethoxy)-N-[(1R,2S)-2-fluorocyclopropyl]-6-methoxy-benzamide]
